In one data set the target is Bovine cardiac myosin (Bos taurus (Bovine), UniProt Q9BE39). Nature of the data set: Cardiac muscle myosin II actin-activated ATPase assay (NADH-coupled). The data set is classed as biochemical. Put shortly:
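NADH-coupled (PK/LDH) assay at 25° C: 300 nM bovine cardiac myosin, 10 μM rabbit F-actin, 1 mM ATP, 1 mM PEP, 220 μM NADH, MOPS pH 7.0, 0.5% DMSO. NADH fluorescence was followed for 30 min; Ki values came from 16-point triplicate data (top 50 uM) fitted to a quadratic one-to-one binding model.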

Another data set concerns the target Rabbit skeletal myosin. Nature of the data set: Skeletal muscle myosin II actin-activated ATPase assay. The conditions noted are these: 20 nM skeletal muscle myosin II; read-out: SKMMII KI. Format: biochemical. Put shortly:
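NADH-coupled (PK/LDH) actin-activated ATPase at 25 °C with 20 nM rabbit skeletal myosin II, 10 μM F-actin, 1 mM ATP, 1 mM PEP, 220 μM NADH in MOPS pH 7.0, MgCl2, EGTA, BSA, DTT, 0.5% DMSO. NADH fluorescence followed 30 min; inhibitory constants from 16-point triplicate curves (top 50 uM), quadratic one-to-one fit.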

The subject of data set [1] is hiPS cardiomyocytes (Cor.4U CMs). Nature of the data set: Cardiac safety assay 1: beating parameters of cardiomyocytes (xCELLigence RTCA Cardio). Format: cell-based, human. Conditions: hiPS-derived cardiomyocytes. The procedure: The spontaneous contractions of cardiomyocytes (CMs) is measured label-free in real time using the ACEA xCELLigence RTCA Cardio instrument. All measurements are performed at 37° C. in a cell culture incubator, allowing for spontaneous beating of CMs at physiological conditions. Cor.4U CMs are seeded at 3×10^4 cells/well in 180 μl/well maintenance medium. Prior to seeding, a background impedance measurement (plate plus medium) is performed. The contraction of CMs involves cyclic modulation of cell morphology and adhesion inducing a delta change in impedance. From the cyclic changes in impedance a beating frequency, amplitude and effects on beating pattern can be calculated. Time point “0” (baseline) is recorded 10× for 20 seconds at 1 minute intervals. Thereafter, compounds and control (0.1% DMSO) are added to the wells and effects are measured 30 minutes later. Vehicle control is 0.1% DMSO and positive control is 100 nM isoproterenol. Compounds are tested at 0.1, 0.3, 1.0 and 3.0 uM. Data is collected at 5, 10, 15, 20 and 30 minutes, and 1, 4, 6, 12 and 24 hours post-incubation.

The next data set deals with fear memory. Nature of the data set: Auditory fear memory after systemic NMII inhibition. Format: in vivo. Conditions: IP administered. An excerpt: (§1) FIG. 3(A,B,C,D): Systemic NMII inhibition selectively targets the storage of (A) a METH-associated memory, (B) having no effect on an auditory fear memory. Similarly, spine density associated with a METH-associated memory (C), but not a fear memory (D), is reduced.
(§2) The potential for systemic NMII inhibition to selectively target METH-associated memories in the way that intra-AMY administration does was also investigated. […] IP administered Blebbistatin also disrupts reconsolidation of memories for cocaine, nicotine and mephedrone, a result with additional potential therapeutic relevance in treating relapse^75-76. In addition, the BLC spine density increase that accompanies a METH-associated memory is reversed by Blebbistatin (FIG. 3C), without altering the spine density increase associated with a fear memory (FIG. 3D)^65, 74.

For another data set, the system named is BLC spine density. Kind of data set: BLC spine density associated with memory. Conditions: in vivo.
From the text: as §1, §2

Several values for one entry are separate records, joined by “and”; a condition that tells them apart may be missing. Equal entries are not always repeated. Where two headings read alike, the source gives them in different places.

The source of these data is patent US20250163056A1, “NONMUSCLE MYOSIN II INHIBITORS” (The University of Florida Research Foundation, Inc., priority 2018, published 2025).

Sequence of Bovine cardiac myosin (Q9BE39 whole entry): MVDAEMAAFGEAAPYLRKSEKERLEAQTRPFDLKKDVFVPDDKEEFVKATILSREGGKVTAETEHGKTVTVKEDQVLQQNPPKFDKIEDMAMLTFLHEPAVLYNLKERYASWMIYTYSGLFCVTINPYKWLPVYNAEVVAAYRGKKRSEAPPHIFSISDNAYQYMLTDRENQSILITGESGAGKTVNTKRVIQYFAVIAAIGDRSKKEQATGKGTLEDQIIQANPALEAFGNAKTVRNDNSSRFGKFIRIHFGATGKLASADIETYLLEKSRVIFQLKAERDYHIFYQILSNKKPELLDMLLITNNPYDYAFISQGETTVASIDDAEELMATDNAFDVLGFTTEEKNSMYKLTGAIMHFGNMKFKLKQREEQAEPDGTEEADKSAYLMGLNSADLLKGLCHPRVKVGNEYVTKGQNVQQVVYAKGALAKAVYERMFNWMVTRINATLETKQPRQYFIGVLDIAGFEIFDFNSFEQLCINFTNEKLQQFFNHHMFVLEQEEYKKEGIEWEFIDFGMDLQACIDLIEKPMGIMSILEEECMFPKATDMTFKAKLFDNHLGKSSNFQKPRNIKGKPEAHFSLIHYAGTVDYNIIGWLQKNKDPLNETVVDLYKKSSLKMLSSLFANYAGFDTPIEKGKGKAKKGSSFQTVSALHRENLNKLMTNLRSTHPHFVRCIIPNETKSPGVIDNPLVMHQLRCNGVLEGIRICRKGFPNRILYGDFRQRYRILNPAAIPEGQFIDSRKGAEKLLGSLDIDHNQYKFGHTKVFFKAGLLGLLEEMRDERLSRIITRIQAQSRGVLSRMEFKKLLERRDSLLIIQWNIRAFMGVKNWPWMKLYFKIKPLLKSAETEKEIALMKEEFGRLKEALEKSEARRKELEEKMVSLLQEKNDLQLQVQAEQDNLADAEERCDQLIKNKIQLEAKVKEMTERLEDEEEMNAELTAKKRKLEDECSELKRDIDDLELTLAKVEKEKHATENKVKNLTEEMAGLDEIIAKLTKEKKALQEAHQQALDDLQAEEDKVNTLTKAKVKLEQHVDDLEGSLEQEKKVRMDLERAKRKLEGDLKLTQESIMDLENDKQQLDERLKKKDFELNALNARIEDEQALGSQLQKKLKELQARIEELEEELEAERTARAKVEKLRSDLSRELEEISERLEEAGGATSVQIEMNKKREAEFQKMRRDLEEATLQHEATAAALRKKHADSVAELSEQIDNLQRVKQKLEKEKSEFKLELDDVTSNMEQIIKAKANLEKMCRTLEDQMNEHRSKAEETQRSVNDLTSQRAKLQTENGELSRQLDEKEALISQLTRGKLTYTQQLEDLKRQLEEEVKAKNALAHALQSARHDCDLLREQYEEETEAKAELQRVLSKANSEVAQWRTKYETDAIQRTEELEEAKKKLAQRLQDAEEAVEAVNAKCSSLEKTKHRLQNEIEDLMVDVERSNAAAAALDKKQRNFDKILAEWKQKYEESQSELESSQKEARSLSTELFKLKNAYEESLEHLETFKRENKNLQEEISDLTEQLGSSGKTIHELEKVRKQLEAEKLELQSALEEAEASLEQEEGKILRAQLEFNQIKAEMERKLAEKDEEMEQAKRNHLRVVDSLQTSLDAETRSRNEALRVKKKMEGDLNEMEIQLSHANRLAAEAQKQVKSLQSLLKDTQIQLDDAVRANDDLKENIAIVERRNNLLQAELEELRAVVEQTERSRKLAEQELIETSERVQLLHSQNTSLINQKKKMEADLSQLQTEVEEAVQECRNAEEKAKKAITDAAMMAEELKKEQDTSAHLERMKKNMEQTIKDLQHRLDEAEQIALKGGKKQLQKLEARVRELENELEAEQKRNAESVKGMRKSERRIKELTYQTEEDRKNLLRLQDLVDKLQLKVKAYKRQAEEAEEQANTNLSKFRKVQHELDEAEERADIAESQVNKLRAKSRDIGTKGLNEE
Sequence of Bovine cardiac myosin (P85100 whole entry partner): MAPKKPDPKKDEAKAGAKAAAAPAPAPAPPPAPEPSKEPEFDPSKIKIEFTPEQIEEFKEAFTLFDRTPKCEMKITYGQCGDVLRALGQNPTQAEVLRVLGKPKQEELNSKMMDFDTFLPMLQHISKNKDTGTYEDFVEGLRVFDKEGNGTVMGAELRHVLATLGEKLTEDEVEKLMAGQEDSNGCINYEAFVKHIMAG
Sequence of Bovine cardiac myosin (Q3SZE5 whole entry partner): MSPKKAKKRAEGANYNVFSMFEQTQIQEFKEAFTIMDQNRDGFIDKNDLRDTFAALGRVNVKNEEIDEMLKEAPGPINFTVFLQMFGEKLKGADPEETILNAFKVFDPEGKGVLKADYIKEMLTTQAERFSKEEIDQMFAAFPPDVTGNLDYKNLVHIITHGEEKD

The term Ki denotes a dissociation constant, usually derived from enzyme kinetics or from competition with a known ligand. Turning to `Cc1ccc2c(c1)C(=O)[C@]1(O)CCN(c3ccccc3)C1=N2` [Blebbistatin, reference compound], the Ki came to 1500 nM on Bovine cardiac myosin (300 nM cardiac myosin, 10 μM actin, 25° C., read-out: CMMII KI); 670 nM on Bovine cardiac myosin (cardiac muscle myosin II, read-out: CMMII Ki); 360 nM on Rabbit skeletal myosin. In addition, the “CMMII/NMII Ratio” value on Bovine cardiac myosin (cardiac Ki relative to NMII EC50) amounted to 0.56. The “Ratio CMMII:NMII Ki/EC50” value on Bovine cardiac myosin (cardiac myosin II Ki over nonmuscle myosin II EC50) was 0.789 and 0.8. Further, the “Qualitative impact on contractility (e.g. Full = Complete inhibition of contraction)” value in data set [1] (0.1 uM) is listed as “No”; in data set [1] (0.3 uM), “Partial”; in data set [1] (1.0 uM), 1.0u M: Full 3.0 uM: Full; in data set [1] (3.0 uM), 1.0u M: Full 3.0 uM: Full. Besides, the “Change in amplitude at 1 uM @ 15 min” value in data set [1] (1 uM, 15 min) was −57.9 ± 12.8%. The “effect on a fear memory” value in the data set on fear memory was “no similarly immediate effect on a fear memory”. The “BLC spine density increase accompanying a METH-associated memory” value in the data set with BLC spine density was “reversed”.
